Experimental findings from ChEMBL document CHEMBL1201862, “PubChem BioAssay data set” (2004) are described below.

Among the test systems are SF-295; SK-OV-3; OVCAR-8; ACHN; IGROV-1; SW-620; K562; HCC 2998; UO-31; UACC-62; M14; SNB-19; SK-MEL-5; A549; KM12; NCI-H460; SR; SN12C; RPMI-8226.
What all share (test): NCI anticancer screen, dose series, 48 h

Each structure is given as a SMILES string.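 Each compound was tested at five concentrations against cells in 96-well plates for 48 hours. GI50 = concentration required for 50% inhibition of growth.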 The source made the active and inactive calls. Rule as the data show it: active = GI50 up to about 1.1 µM and inactive = higher. Bounds are passed on as bounds.

Take `CCOC(=O)c1nc2c(Cl)c3ncccc3cc2[nH]c1=O`: the GI50 in the assay with SF-295 was 22.8 µM (inactive); in the assay with SK-OV-3 it was > 100 µM (inactive); in the assay on OVCAR-8, 29.9 µM (inactive); in the assay with ACHN, 95.7 µM (inactive); in the assay with IGROV-1, 53.5 µM (inactive); with SW-620, 43.3 µM (inactive). The GI50 with K562 was 26.1 µM (inactive); with HCC 2998 it was 19.6 µM (inactive); in the assay on UO-31 it was 55.5 µM (inactive); in the assay with UACC-62, 14.6 µM (inactive); in the assay with M14, 27.9 µM (inactive); in the assay with SNB-19, 48.1 µM (inactive). Also, the GI50 was 9.04 µM (inactive) with SK-MEL-5; 28.4 µM (inactive) in the assay on A549; 31.6 µM (inactive) in the assay on KM12; 16.8 µM (inactive) in the assay with NCI-H460; 8.73 µM (inactive) in the assay on SR.

For `CCOc1ccc(NC(=O)CC#N)cc1`, the GI50 in the assay on SF-295, in the assay on SK-OV-3, in the assay on OVCAR-8, in the assay on ACHN, with IGROV-1 and with SW-620 was > 100 µM (inactive) each time. In addition, the GI50 in the assay with K562 was > 100 µM (inactive); in the assay with HCC 2998, 6.79 µM (inactive); with UO-31 it was > 100 µM (inactive); in the assay with SN12C, > 100 µM (inactive); with UACC-62, > 100 µM (inactive); in the assay with M14 it was > 100 µM (inactive). Also, the GI50 with SNB-19, with SK-MEL-5, with A549, in the assay on KM12, with NCI-H460 and with SR was > 100 µM (inactive) in each case.

As for `CC(C)=CCOc1ccc(-c2coc3cc4c(c(O)c3c2=O)C=CC(C)(C)O4)cc1`, the GI50 with SF-295 is 49.5 µM (inactive); in the assay with OVCAR-8, 50.7 µM (inactive); in the assay with ACHN it was > 100 µM (inactive); with RPMI-8226, 27.3 µM (inactive); with IGROV-1 it was 21.1 µM (inactive); with SW-620 it was > 100 µM (inactive). The GI50 in the assay on K562 was 0.389 µM (active); with HCC 2998, 83.6 µM (inactive); with UO-31, > 100 µM (inactive); in the assay with SN12C, > 100 µM (inactive); in the assay with SNB-19, 56 µM (inactive); in the assay on SK-MEL-5 it was 0.207 µM (active). The GI50 with A549 was 32.9 µM (inactive); with KM12, > 100 µM (inactive); in the assay with NCI-H460, 63.2 µM (inactive); with SR, > 100 µM (inactive).

On to `CCOc1ccccc1NC(=O)C(=O)Cc1nc2ccccc2s1`, for which the GI50 with SF-295, with SK-OV-3, with OVCAR-8, with ACHN, with IGROV-1 and in the assay on SW-620 was > 100 µM (inactive) in each case. Moreover, the GI50 with HCC 2998, with UO-31, in the assay with SN12C, in the assay on UACC-62, in the assay with M14 and in the assay on SNB-19 was > 100 µM (inactive) in each case. Besides, the GI50 with SK-MEL-5, in the assay on A549, in the assay on KM12, with NCI-H460 and in the assay with SR was > 100 µM (inactive) each time.

In the case of `Cc1nc2c3c(ccc2nc1O)C(=O)c1ccccc1C3=O`, the GI50 was > 100 µM (inactive) in the assay on SF-295; 24.5 µM (inactive) with SK-OV-3; 80 µM (inactive) in the assay with OVCAR-8; 24.4 µM (inactive) in the assay with ACHN; 42.9 µM (inactive) in the assay on IGROV-1; 56.2 µM (inactive) in the assay on SW-620. Moreover, the GI50 in the assay with K562 was > 100 µM (inactive); in the assay with HCC 2998, > 100 µM (inactive); in the assay on UO-31, 6.15 µM (inactive); with SN12C it was 42.2 µM (inactive); with UACC-62, 55.3 µM (inactive); with M14, > 100 µM (inactive). Also, the GI50 in the assay with SNB-19 was > 100 µM (inactive); in the assay with SK-MEL-5 it was > 100 µM (inactive); in the assay on A549, 52 µM (inactive); with KM12, 32.2 µM (inactive); in the assay on NCI-H460, 37.2 µM (inactive); in the assay with SR, > 100 µM (inactive).

For the compound `CN1C(=O)C(=CN)C(=O)N(C)C1=O`, the GI50 with SF-295, with OVCAR-8, in the assay on ACHN, with RPMI-8226, in the assay on SW-620 and in the assay with K562 was > 100 µM (inactive) throughout. Also, the GI50 in the assay on HCC 2998, in the assay on UO-31, in the assay on SN12C, in the assay with M14, in the assay on SNB-19 and in the assay on SK-MEL-5 was > 100 µM (inactive) each time. Also, the GI50 in the assay on A549, with KM12, in the assay with NCI-H460 and with SR was > 100 µM (inactive) in each case.

Regarding `Cc1cs/c(=N\C(P(=O)(O)O)P(=O)(O)O)n1C`, the GI50 in the assay with SF-295, in the assay with SK-OV-3, in the assay on OVCAR-8, with ACHN, with RPMI-8226 and with IGROV-1 was > 100 µM (inactive) throughout. Further, the GI50 in the assay on SW-620, in the assay with K562, with HCC 2998, in the assay on UO-31, with UACC-62 and with M14 was > 100 µM (inactive) each time. Moreover, the GI50 with SNB-19 was > 100 µM (inactive); in the assay on SK-MEL-5, 86.5 µM (inactive); in the assay on A549, > 100 µM (inactive); in the assay on KM12, > 100 µM (inactive); in the assay with NCI-H460, > 100 µM (inactive); with SR, > 100 µM (inactive).

Regarding `COC(=O)C1Cc2c([nH]c3ccccc23)C(C2CCCCC2)N1` (stereo not drawn), the GI50 in the assay with SF-295 was > 100 µM (inactive); in the assay with SK-OV-3 it was > 100 µM (inactive); with OVCAR-8 it was > 100 µM (inactive); in the assay on ACHN, > 100 µM (inactive); in the assay on IGROV-1 it was 83.9 µM (inactive); in the assay on SW-620, > 100 µM (inactive). For the same compound, the GI50 in the assay with K562, with HCC 2998, with UO-31, with SN12C, in the assay on UACC-62 and in the assay with M14 was > 100 µM (inactive) throughout. Besides, the GI50 with SNB-19 is > 100 µM (inactive); with SK-MEL-5 it was 52.7 µM (inactive); with A549, > 100 µM (inactive); with KM12 it was > 100 µM (inactive); in the assay with NCI-H460 it was > 100 µM (inactive); with SR, > 100 µM (inactive).
